From US7160916B2, “Method of increasing bone density or treating osteoporosis” (Yung Shin Pharmaceutical Ind. Co., Ltd., priority 2003, dated 2007) come the findings set out here.

The structures appear in SMILES notation.

The subject of one experiment is Primary osteoblast cells. The experiment is described as follows: von Kossa staining, bone nodule formation. Type of experiment: cell-based, rat. Particulars: treatment for 2 weeks. The procedure: Primary osteoblast cultures: Primary osteoblast cells were prepared from calvaria of 18-day-old fetal Sprague-Dawley (SD) rats according to the following method: Pregnant rats were put in anesthesia using intraperitoneal injection of trichloroacetaldehyde (200 mg/kg). The calvaria of the fetal rats were then dissected with aseptic technique. Soft tissues were removed under a dissecting microscope. The calvaria were divided into small pieces and then treated with 0.1% collagenase (Sigma Chemical, St. Louis, Mo.) solution for 10 minutes at 37° C. The cells released from the calvariae by two 20-minute sequential collagenase digestions were pooled and filtered through 70 μm nylon filters (Falcon, BD BioSciences, San Jose, Calif.). […]
von Kossa staining: Osteoblasts were cultured in DMEM containing 50 μg/ml vitamin C and 10 mM β-glycerophosphate for 2 weeks and the medium was changed every 3 days. […] The number of nodules formed per well was counted under a light microscope. Collagen synthesis was determined by measuring the 4-hydroxyproline content in cultured osteoblasts. […] After lyophilizing and reconstituting a lysate in distilled water, the amount of 4-hydroxyproline was determined by spectrophotometry at 550 nm as described by Berg (1982) Meth Enzymol. […]

The next experiment relates to osteoclasts. The experiment is described as follows: Assay of bone resorption of osteoclast. Type of experiment: cell-based, rat. Particulars: 3-day incubation after removal of M-CSF and sRANKL, versus control. As for the experimental part: Assay of bone resorption of osteoclast: Osteoclast precursors were isolated from rat long bones as mentioned above. The cells were re-suspended in a complete DMEM medium and plated into a calcium phosphate apatite-coated 24-well plate, OAAS (Oscotec, OCT USA Inc.) at 1×10^6 cells/0.5 ml/well. The cells were cultured for 5 days in the presence of M-CSF (20 ng/ml) plus sRANKL (50 ng/ml). Indazole 1 was injected daily for additional 3 days in the absence of M-CSF and sRANKL. Culture was terminated on day 8 and the remaining cells in the plate were lysed using 1 N NaOH. Five images per well were obtained using an inverted microscope (200×), and resorbed area was measured using an image analyzer. Local injection Male SD rats weighing 70–88 gm were used. Implantation of a cannula (22G) was done from the posteriolateral side into the proximal tibial metaphysis in both limbs of rats anesthetized with pentobarbital. The cannula had its outer end in the subcutaneous tissue. Indazole 1 was percutaneously injected through the cannula into the proximal tibia once/day for 1 week. The same concentration of DMSO diluted with normal saline was injected into the right side for comparison. On day 14, the rats were sacrificed and tibiae were fixed in 10% formaldehyde for 48 h at 4° C. The effect of Indazole 1 on resorption activity of osteoclasts was also examined. […]

For a further experiment, the system named is adult male rats. As to the kind of experiment: Bone loss induced by the cut of sciatic nerve. Format: in vivo, rat. Further details: Tibia BMD / Tibia BMC / Femur BMD / Femur BMC: unit not given here. The note with it: for Bone volume / Femur BMC / Femur BMD / Femur length / Femur weight / Tibia BMC / Tibia BMD / Tibia length / Tibia weight: i.p. 1 mg/kg daily for 1 month, mean ± S.E., n=10. The text has this: Bone histomorphometry: After formalin fixation of tibia was completed, the tibiae were then decalcified in 0.5 N hydrochloric acid, dehydrated in an ascending series of ethanol solution and acetone, and embedded in paraffin. Serial sections (5 μm) were cut longitudinally and stained with Mayer's hematoxylin-eosin solution (Yang et al. (1993) Calcif Tissue Int 52:57–61). Images of the growth plate and proximal tibia were photographed using a photoMicroGraphic Digitize integrate System (MGDS; Total-Integra Technology Co., Ltd., Taipei, Taiwan). Bone volume measurements were performed on the whole secondary spongiosa, which is located under the primary spongiosa and characterized by a network of larger trabeculae. Bone volumes were calculated using an image analysis software. All measurements were done in a single-blind fashion. Ovariectomy and cut of sciatic nerve: Ovariectomy and cut of sciatic nerve were performed in adult female and male rats (3 month-old), respectively. After surgery, the rats were injected with Indazole 1 (i.p., 1 mg/Kg) or a vehicle daily for 4 weeks. On the day following the last injection, the rats were sacrificed and their tibia and femur were removed. Tibia and femur Preparation: At the end of the program, the rats were sacrificed by decapitation. The tibiae were removed, cleaned of soft tissue, and the length of the tibia was measured with a precision caliper (±0.05 mm) as described by Weinreb et al. (1991) J Bone Miner Res 6:725–731. The tibiae were fixed in 10% formaldehyde for 48 h at 4° C. for bone histomorphometry analysis. Some of the tibia and femur were also removed and kept at −20° C. for bone mineral analysis. Analysis of bone mineral density (BMD) and content (BMC): BMD and BMC of the tibia and femur were measured with a dual-energy X-ray absorptiometer (DEXA, XR-26; Norland, Fort Atkinson, Wis.). The mode adapted to the measurements of small subjects was adopted. A coefficient of variation of 0.7% was calculated from daily measurements of BMD on a lumbar phantom for more than 1 year (Yang et al. (1998) Calcif Tissue Int 63:86–90). The tibia and femur were thawed to room temperature before bone mineral analysis. The whole tibiae and femur were scanned and BMD and BMC were measured by absorptiometer.

Regarding `OCc1ccc(-c2nn(Cc3ccccc3)c3ccccc23)o1` [Indazole 1, 1-benzyl-3-(5′-hydroxymethyl-2′-furyl)-indazole], the “number of bone nodules (von Kossa staining)” value with Primary osteoblast cells is on record as “increased the number of bone nodules in a concentration-dependent manner”. Besides, the “resorption activity of osteoclasts” value with osteoclasts is recorded as “significantly inhibited”. In the experiment with adult male rats (1 mg/kg daily for 4 weeks immediately after the cut of sciatic nerve), the “bone loss induced by nerve section” value is given as “antagonized the bone loss”. Also, in the experiment with adult male rats (Contralateral side), the Bone volume worked out at 11.9 ± 0.98%, the “Femur BMC” value was 0.419 ± 0.016, the “Femur BMD” value amounted to 0.132 ± 0.003 and the Femur length came to 3.95 ± 0.02 cm. In the experiment on adult male rats (Contralateral side), the Femur weight came out at 1.16 ± 0.03 g, the “Tibia BMC” value turned out to be 0.282 ± 0.013, the “Tibia BMD” value was found to be 0.106 ± 0.002 and the Tibia length is 4.36 ± 0.01 cm. The compound also yielded a Tibia weight in the experiment with adult male rats (Contralateral side) of 0.92 ± 0.03 g. Further, in the experiment with adult male rats (Surgery side), the Bone volume was 9.43 ± 0.8%, the “Femur BMC” value turned out to be 0.394 ± 0.015, the “Femur BMD” value is recorded as 0.129 ± 0.003 and the Femur length is on record as 3.96 ± 0.01 cm. In the experiment with adult male rats (Surgery side), the Femur weight amounted to 1.17 ± 0.03 g, the “Tibia BMC” value is reported as 0.298 ± 0.014, the “Tibia BMD” value worked out at 0.106 ± 0.002 and the Tibia length was found to be 4.35 ± 0.01 cm. The compound further had a Tibia weight with adult male rats (Surgery side) of 0.91 ± 0.03 g.
